Source: patent publication EP4711369A1, “1H-[1,2,3]TRIAZOLO[4,5-H]QUINAZOLINE COMPOUNDS AS PROTEIN KINASE INHIBITORS” (Chengdu Cynogen Bio-Pharmaceutical Technology Co., Ltd., priority 2023, dated 2024)
pIC50: −log10 of the molar value.

Key:
[1] = system: Human ovarian cancer OVCAR3 cells; test: Assay of cell proliferation (CellTiter-Glo); format: cell-based; conditions: Homo sapiens, OVCAR-3, 144 h, 6 days, read-out: OVCAR3 IC50 of cell proliferation inhibitory activity
Outline: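 OVCAR3 cells, 2000/well in RPMI 1640 with 20% FBS, treated with nine 3-fold dilutions from 10 µM to 0.1 nM (0.5% DMSO) for 6 days at 37 °C. Viability by CellTiter-Glo luminescence; IC50 by four-parameter fit.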

[2] = system: human acute myeloid leukemia MV-4-11 cells; test: Assay of cell proliferation (CellTiter-Glo); format: cell-based; conditions: MV4-11, 144 h, 6 days, read-out: MV-4-11 IC50 of cell proliferation inhibitory activity
Outline: (§1)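 Cells seeded per line at growth-adapted densities, treated 6 days at 37 °C/5% CO2 with nine 3-fold dilutions (10 µM to 0.1 nM final, 0.5% DMSO). Viability by CellTiter-Glo luminescence; IC50 from four-parameter fit.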

[3] = system: human breast cancer HCC1806 cells; test: Assay of cell proliferation (CellTiter-Glo); format: cell-based; conditions: Homo sapiens, 144 h, 6 days, read-out: HCC1806 IC50 of cell proliferation inhibitory activity
Outline: as §1

[4] = system: human gastric cancer MKN1 cells; test: Assay of cell proliferation (CellTiter-Glo); format: cell-based; conditions: Homo sapiens, MKN-1, 144 h; MNK1, 6 days; read-out: MKN1 IC50 of cell proliferation inhibitory activity
Outline: as §1

CDK6/cyclin D3 = CDK6/cyclin D3 (Homo sapiens, UniProt Q00534); test: Assay of kinase activity (ADP-Glo); format: biochemical; conditions: kinase inhibitory activity
Chain of CDK6/cyclin D3 (Q00534 whole entry, species assumed): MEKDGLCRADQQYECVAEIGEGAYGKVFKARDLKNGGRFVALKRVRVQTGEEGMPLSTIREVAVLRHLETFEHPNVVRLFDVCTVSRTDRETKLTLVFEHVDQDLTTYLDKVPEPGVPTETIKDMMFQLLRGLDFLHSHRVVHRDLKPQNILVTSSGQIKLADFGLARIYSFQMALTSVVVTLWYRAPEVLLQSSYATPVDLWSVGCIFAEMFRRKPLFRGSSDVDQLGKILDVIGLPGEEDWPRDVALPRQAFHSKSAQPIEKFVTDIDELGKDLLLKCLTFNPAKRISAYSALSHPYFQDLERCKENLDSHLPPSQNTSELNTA
Chain of CDK6/cyclin D3 (P30281 whole entry partner, species assumed): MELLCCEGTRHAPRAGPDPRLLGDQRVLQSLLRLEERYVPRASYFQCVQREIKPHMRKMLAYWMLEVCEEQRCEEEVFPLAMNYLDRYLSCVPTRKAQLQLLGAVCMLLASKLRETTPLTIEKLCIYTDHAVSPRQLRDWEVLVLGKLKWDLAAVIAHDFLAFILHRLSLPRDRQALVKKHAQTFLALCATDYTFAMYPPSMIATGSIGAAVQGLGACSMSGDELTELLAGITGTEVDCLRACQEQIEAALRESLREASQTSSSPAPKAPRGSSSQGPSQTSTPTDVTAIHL
Outline: (§2)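 Human CDK6/cyclin D3 and CDK9/cyclin T1 preincubated 10 min at 25 °C with compound in 50 mM Hepes, 10 mM MgCl2, 0.01% Brij35, 2 mM DTT, then reacted 60 min at 25 °C with substrate and ATP. ADP formed measured by ADP-Glo luminescence; IC50 from nonlinear concentration-response fitting.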

CDK9/cyclin T1 = CDK9/cyclin T1 (Homo sapiens, UniProt P50750); test: Assay of kinase activity (ADP-Glo); format: biochemical; conditions: kinase inhibitory activity
Chain of CDK9/cyclin T1 (P50750 whole entry, species assumed): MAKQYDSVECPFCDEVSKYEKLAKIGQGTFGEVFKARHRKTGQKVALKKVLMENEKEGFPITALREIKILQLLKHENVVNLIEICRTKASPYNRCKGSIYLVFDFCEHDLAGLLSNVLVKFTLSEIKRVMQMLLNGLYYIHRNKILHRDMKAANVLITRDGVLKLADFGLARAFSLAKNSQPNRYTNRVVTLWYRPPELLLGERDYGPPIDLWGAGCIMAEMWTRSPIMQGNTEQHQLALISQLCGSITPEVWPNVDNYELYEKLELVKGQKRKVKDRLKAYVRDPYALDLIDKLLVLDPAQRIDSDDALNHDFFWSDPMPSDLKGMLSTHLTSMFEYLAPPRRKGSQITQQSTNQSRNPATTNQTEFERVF
Chain of CDK9/cyclin T1 (O60563 whole entry partner, species assumed): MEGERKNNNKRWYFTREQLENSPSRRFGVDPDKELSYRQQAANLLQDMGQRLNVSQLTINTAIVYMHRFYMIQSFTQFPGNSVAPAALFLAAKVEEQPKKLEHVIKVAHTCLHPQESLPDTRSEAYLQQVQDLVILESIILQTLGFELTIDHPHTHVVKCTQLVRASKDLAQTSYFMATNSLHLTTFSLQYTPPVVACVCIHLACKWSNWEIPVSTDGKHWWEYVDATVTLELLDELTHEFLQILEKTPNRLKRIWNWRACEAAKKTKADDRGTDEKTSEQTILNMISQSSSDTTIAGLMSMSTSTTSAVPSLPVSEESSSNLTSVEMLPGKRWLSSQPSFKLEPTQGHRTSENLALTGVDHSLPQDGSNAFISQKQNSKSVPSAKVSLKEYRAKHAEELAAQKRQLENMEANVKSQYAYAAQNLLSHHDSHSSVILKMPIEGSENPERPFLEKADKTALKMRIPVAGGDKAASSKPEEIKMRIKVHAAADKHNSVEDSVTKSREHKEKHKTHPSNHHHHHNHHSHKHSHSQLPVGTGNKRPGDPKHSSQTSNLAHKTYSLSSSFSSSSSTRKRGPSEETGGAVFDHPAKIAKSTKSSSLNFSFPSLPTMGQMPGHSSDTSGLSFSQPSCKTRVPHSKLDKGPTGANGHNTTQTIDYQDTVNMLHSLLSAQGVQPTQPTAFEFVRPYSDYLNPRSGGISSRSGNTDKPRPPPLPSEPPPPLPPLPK
Outline: as §2

CDK4/cyclin D1 = CDK4/cyclin D1 (Homo sapiens, UniProt P11802); test: Assay of kinase activity (ADP-Glo); format: biochemical; conditions: kinase inhibitory activity
Chain of CDK4/cyclin D1 (P11802 whole entry, species assumed): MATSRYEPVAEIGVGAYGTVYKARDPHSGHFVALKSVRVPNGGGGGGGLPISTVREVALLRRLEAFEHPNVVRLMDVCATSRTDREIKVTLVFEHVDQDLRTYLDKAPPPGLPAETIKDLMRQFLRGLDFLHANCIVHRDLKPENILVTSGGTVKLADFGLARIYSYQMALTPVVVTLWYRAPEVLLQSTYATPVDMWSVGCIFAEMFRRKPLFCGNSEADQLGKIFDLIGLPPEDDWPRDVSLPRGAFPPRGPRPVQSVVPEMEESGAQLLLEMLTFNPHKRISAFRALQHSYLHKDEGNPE
Chain of CDK4/cyclin D1 (P24385 whole entry partner, species assumed): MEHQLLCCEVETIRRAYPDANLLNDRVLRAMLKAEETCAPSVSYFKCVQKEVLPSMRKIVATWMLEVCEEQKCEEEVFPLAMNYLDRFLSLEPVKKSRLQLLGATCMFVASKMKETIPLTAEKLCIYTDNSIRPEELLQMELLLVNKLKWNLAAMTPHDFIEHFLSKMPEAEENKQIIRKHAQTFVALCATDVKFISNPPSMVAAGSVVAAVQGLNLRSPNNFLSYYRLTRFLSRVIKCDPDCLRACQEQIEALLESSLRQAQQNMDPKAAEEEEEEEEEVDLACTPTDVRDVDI
Outline: (§3)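 Kinase preincubated 10 min with compound in 50 mM Hepes, 10 mM MgCl2, 0.01% Brij35, 2 mM DTT, then substrate/ATP added for 60 min at 25 °C. ADP formed measured by ADP-Glo luminescence; IC50 by nonlinear concentration-response fitting.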

CDK2/cyclin E = CDK2/cyclin E (Homo sapiens, UniProt P24941); test: Assay of kinase activity (ADP-Glo); format: biochemical; conditions: kinase inhibitory activity, read-out: CDK2/E1 IC50
Outline: as §3

SMILES	pIC50 [1]	pIC50 [2]	pIC50 [3]	pIC50 [4]	pIC50 (CDK6/cyclin D3)	pIC50 (CDK9/cyclin T1)	pIC50 (CDK4/cyclin D1)	pIC50 (CDK2/cyclin E)
CC(C)N[C@H]1CCN(C(=O)c2ccc(Nc3ncc4ccc5nnn([C@H](C)C(C)(C)O)c5c4n3)cc2)C1 [Example I-55, (4-((1-((R)-3-hydroxy-3-methylbutan-2-yl)-1H-[1,2,3]triazolo[4,5-H]quinazolin-8-yl)amino)phenyl)((S)-3-(isopropylamino)pyrrolidin-1-yl)methanone]	7.51	8.30	7.10	7.82	7.74	8.22	8.70	9.15
CC(C)N[C@@H]1CCN(C(=O)c2ccc(Nc3ncc4ccc5nnn(C(C)C)c5c4n3)cc2)C1 [Example I-9, (R)-(4-((1-Isopropyl-1H-[1,2,3]triazolo[4,5-H]quinazolin-8-yl)amino)phenyl)(3-(isopropylamino)pyrrolidin-1-yl)methanone]	7.59	8.52	7.28	7.96	7.82	8.70	9.00	9.70
CC(C)n1nnc2ccc3cnc(Nc4ccc(C(=O)N5CC6CC(C5)N6)cc4)nc3c21 [Example I-24, (3,6-Diazabicyclo[3.1.1]heptan-3-yl)(4-((1-isopropyl-1H-[1,2,3]triazolo[4,5-H]quinazolin-8-yl)amino)phenyl)metha none]	7.74	8.52	7.36	8.22	7.59	8.10	9.00	10.00
C[C@@H](n1nnc2ccc3cnc(Nc4ccc(C(=O)N5CCOCC5)cc4)nc3c21)C(C)(C)O [Example I-58, (R)-(4-((1-(3-Hydroxy-3-methylbutan-2-yl)-1H-[1,2,3]triazolo[4,5-H]quinazolin-8-yl)amino)phenyl)(morpholino)methanone]	6.50	7.72	6.18	7.05	8.05	7.72	8.70	9.00
CC(C)N[C@H]1CCN(C(=O)c2ccc(Nc3ncc4ccc5nnn([C@@H]6CCC[C@@]6(C)O)c5c4n3)cc2)C1 [Example I-63, (4-((1-((1R,2R)-2-Hydroxy-2-methylcyclopentyl)-1H-[1,2,3]triazolo[4,5-H]quinazolin-8-yl)amino)phenyl)((S)-3-(isopropylamino)pyrrolidin-1-yl)methanone]	8.22	9.00	7.82	9.00	8.52	8.52	9.22	10.10
C[C@@H](n1nnc2ccc3cnc(Nc4ccc(C(=O)N5CCCNCC5)cc4)nc3c21)C(C)(C)O [Example I-60, (R)-(1,4-Diazepan-1-yl)(4-((1-(3-hydroxy-3-methylbutan-2-yl)-1H-[1,2,3]triazolo[4,5-H]quinazolin-8-yl)amino)phenyl)methanone]	7.06	7.92	7.01	7.39	8.52	7.72	9.00	9.10
CC(C)n1nnc2ccc3cnc(Nc4ccc(C(=O)N5CCC(N)CC5)c(F)c4)nc3c21 [Example I-16, (4-Aminopiperidin-1-yl)(2-fluoro-4-((1-isopropyl-1H-[1,2,3]triazolo[4,5-H]quinazolin-8-yl)amino)phenyl)metha none]	7.05	8.05	6.43	6.96	6.64	7.11	7.92	8.40
CN[C@H]1CCN(C(=O)c2ccc(Nc3ncc4ccc5nnn(C(C)C)c5c4n3)cc2)C1 [Example I-6, (S)-(4-((1-Isopropyl-1H-[1,2,3]triazolo[4,5-H]quinazolin-8-yl)amino)phenyl)(3-(methylamino)pyrrolidin-1-yl)methanone]	7.59	8.70	7.14	8.15	8.52	8.70	9.30	10.22
C[C@@]1(O)CCC[C@H]1n1nnc2ccc3cnc(Nc4ccc(C(=O)N5CCNCC5)cc4)nc3c21 [Example I-65]	7.46	8.30	6.95	8.10	8.52	8.52	9.22	9.22
C[C@@]1(O)CCC[C@H]1n1nnc2ccc3cnc(Nc4ccc(C(=O)N5CCS(=O)(=O)CC5)cc4)nc3c21 [Example I-68, (1,1-Dioxothiomorpholino)(4-((1-((1R,2R)-2-hydroxy-2-methylcyclopentyl)-1H-[1,2,3]triazolo[4,5-H]quinazolin-8-yl)amino)phenyl)methanone]	6.74	8.10	6.92	7.21	7.47	6.95	8.70	9.00
CC(C)n1nnc2ccc3cnc(Nc4ccc(C(=O)N5CC[C@@H](N(C)C)C5)cc4)nc3c21 [Example I-11, (R)-(3-(Dimethylamino)pyrrolidin-1-yl)(4-((1-isopropyl-1H-[1,2,3]triazolo[4,5-H]quinazolin-8-yl)amino)phenyl)metha none]	6.83	8.40	6.91	7.54	8.22	8.70	9.15	10.10
CC(C)n1nnc2ccc3cnc(Nc4ccc(C(=O)N5CCC(F)CC5)cc4)nc3c21 [Example I-18, (4-Fluoropiperidin-1-yl)(4-((1-isopropyl-1H-[1,2,3]triazolo[4,5-H]quinazolin-8-yl)amino)phenyl)metha none]	6.67	7.64	6.61	6.89	7.46	7.60	8.30	8.70
C[C@@]1(O)CCC[C@H]1n1nnc2ccc3cnc(Nc4ccc(S(=O)(=O)NCCO)cc4)nc3c21 [Example I-71]	8.30	8.70	7.74	8.52	8.22	8.05	9.00	9.05
CC(C)n1nnc2ccc3cnc(Nc4ccc(C(=O)N5CC[C@@H](F)C5)cc4)nc3c21 [Example I-2, (R)-(3-Fluoropyrrolidin-1-yl)(4-((1-isopropyl-1H-[1,2,3]triazolo[4,5-H]quinazolin-8-yl)amino)phenyl)methanone]	7.03	7.82	6.76	7.34	7.92	8.10	8.70	9.52
C[C@@H](n1nnc2ccc3cnc(Nc4ccc(C(=O)N5CCCN(C)CC5)cc4)nc3c21)C(C)(C)O [Example I-61, (R)-(4-((1-(3-Hydroxy-3-methylbutan-2-yl)-1H-[1,2,3]triazolo[4,5-H]quinazolin-8-yl)amino)phenyl)(4-methyl-1,4-diazepan-1-yl)methanone]	7.96	8.40	8.10	8.10	8.70	7.80	9.00	9.05
CC(C)n1nnc2ccc3cnc(Nc4ccc(C(=O)N5CC[C@H](F)C5)cc4)nc3c21 [Example I-1, (S)-(3-Fluoropyrrolidin-1-yl)(4-((1-isopropyl-1H-[1,2,3]triazolo[4,5-H]quinazolin-8-yl)amino)phenyl)methanone]	6.92	7.77	6.65	7.35	7.89	8.05	8.70	9.70
C[C@@]1(O)CCC[C@H]1n1nnc2ccc3cnc(Nc4ccc(C(=O)N5CCCNCC5)cc4)nc3c21 [Example I-69, (1,4-diazepan-1-yl)(4-((1-((1R,2R)-2-hydroxy-2-methylcyclopentyl)-1H-[1,2,3]triazolo[4,5-H]quinazolin-8-yl)amino)phenyl)methanone]	7.82	8.52	7.70	8.22	8.52	8.70	9.30	10.30
CC(C)n1nnc2ccc3cnc(Nc4ccc(C(=O)N5CCCNCC5)cc4)nc3c21 [Example I-33, (1,4-Diazepan-1-yl)(4-((1-isopropyl-1H-[1,2,3]triazolo[4,5-H]quinazolin-8-yl)amino)phenyl)metha none]	8.30	8.70	7.72	8.52	7.59	7.35	9.00	9.70
